Measured values reported in ChEMBL document CHEMBL1123686, “Esters of N,N-disubstituted 2-hydroxyacetamides as a novel highly biolabile prodrug type for carboxylic acid agents” (J Med Chem, 1987).
In brackets after ≈: the same amount, converted by molar mass.

How the values were obtained:
[1] = (§1) Half life of ester hydrolysis in 50% human plasma ( pH of 7.4) at 37 degree Centigrade; settings: 50% human plasma, pH 7.4
[2] = physchem
[3] = Second order rate constant for hydroxide ion catalyzed by hydrolysis at 37 degree Centigrade
[4] = physchem; remark: listed apart in the source
[5] = Half life of ester hydrolysis in 50% human plasma ( pH of 7.4) at 37 degree Centigrade.; type: ADME, organism-based; settings: pH 7.4
[6] = species on record: Homo sapiens; assay: as §1; settings: pH 7.4
[7] = species on record: Homo sapiens; settings: Plasma, pH 7.4
Description: Ability to undergo in vitro ester hydrolysis in 80% human plasma ( pH of 7.4) at 37 degree Celsius expressed as half life of methyl ester hydrolysis

[8] = species on record: Homo sapiens; settings: Plasma, pH 7.4; remark: listed apart in the source
Description: Ability to undergo in vitro ester hydrolysis in 80% human plasma ( pH of 7.4) at 37 degree Celsius expressed as half life of N,N-diethylglycolamide ester hydrolysis

SMILES | half-life [1] [min] | solubility [2] [µg/mL] | kOH [3] [M⁻¹ s⁻¹] | logD ([4]; 0.01 M HCl) | also measured
CCOC(=O)CN(C)C(=O)COC(=O)c1ccccc1 | 0.22 |  |  |  | 
O=C(OCC(=O)N(CCO)CCO)c1ccccc1 | 0.42 | 720000 (≈ 2690 mM) | 0.23 |  | 
CN(CCO)C(=O)COC(=O)c1ccccc1 | 0.2 |  | 0.268 |  | 
CC(C)(C)NC(=O)COC(=O)c1ccccc1 | 4.2 | 320 (≈ 1.36 mM) | 0.855 | 2.26 | 
CN(CC(=O)O)C(=O)COC(=O)c1ccccc1 | 104 |  | 0.25 | 0.67 | 
CCN(CCO)C(=O)COC(=O)c1ccccc1 | 0.16 |  | 0.273 |  | 
CN1CCN(C(=O)COC(=O)c2ccccc2)CC1 | 12.7 |  | 0.357 |  | 
CN(C)CCN(C)C(=O)COC(=O)c1ccccc1.Cl | 0.12 | > 200000 | 0.297 |  | 
NC(=O)COC(=O)c1ccccc1 [BENZOIC ACID CARBAMOYLMETHYL ESTER] |  | 4100 (≈ 22.9 mM) | 1.32 | 0.09 | half-life [5]: 31 min
C=CCN(CC=C)C(=O)COC(=O)c1ccccc1 [BENZOIC ACID DIALLYLCARBAMOYLMETHYL ESTER] |  | 710 (≈ 2.74 mM) | 0.307 |  | T1/2 [6]: 0.08 min; logD ([4]; octanol/water): 2.34
CCCCN(CCCC)C(=O)COC(=O)c1ccccc1 [BENZOIC ACID DIBUTYLCARBAMOYLMETHYL ESTER] | 3.1 | 80 (≈ 0.275 mM) | 0.188 |  | 
CCN(CC)C(=O)COC(=O)c1ccccc1 [BENZOIC ACID DIETHYLCARBAMOYLMETHYL ESTER] |  | 2000 (≈ 8.5 mM) | 0.273 |  | T1/2 [6]: 0.04 min
CN(C)C(=O)COC(=O)c1ccccc1 [BENZOIC ACID DIMETHYLCARBAMOYLMETHYL ESTER] | 0.15 | 8800 (≈ 42.5 mM) | 0.325 |  | 
CCCN(CCC)C(=O)COC(=O)c1ccccc1 [BENZOIC ACID DIPROPYLCARBAMOYLMETHYL ESTER] | 0.14 |  | 0.237 |  | 
CCNC(=O)COC(=O)c1ccccc1 [BENZOIC ACID ETHYLCARBAMOYLMETHYL ESTER] | 11.5 | 1200 (≈ 5.79 mM) | 1.1 | 1.28 | 
CNC(=O)COC(=O)c1ccccc1 [BENZOIC ACID METHYLCARBAMOYLMETHYL ESTER] | 9.3 | 3700 (≈ 19.2 mM) | 1.42 | 0.99 | 
CCCNC(=O)COC(=O)c1ccccc1 [BENZOIC ACID PROPYLCARBAMOYLMETHYL ESTER] | 11.2 | 640 (≈ 2.89 mM) | 0.868 | 1.88 | 
COc1ccc2c(c1)c(CC(=O)O)c(C)n2C(=O)c1ccc(Cl)cc1 [INDOMETHACIN] |  |  |  |  | T1/2 [7]: 150 h; T1/2 [8]: 25 min
O=C(O)c1ccccc1O [SALICYLIC ACID] |  |  |  |  | T1/2 [7]: 17.6 h; T1/2 [8]: 0.08 min
